Data: the supplement of paper PMC10307832

Columns and labels:
Test in all cases: relative viability (nuclei count vs DMSO), 5 days (fraction); higher = more cells survive
[1] = tested on: LCLC-103H
Outline: (§1)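 One day after seeding in 1536-well plates, lung cancer cell lines were dosed by pin tool. Dosing was either single-drug or a fixed anchor-drug dose plus five library-drug doses (not always all listed) in √10 steps. After 5 days, nuclei were stained in one fix-and-stain step and counted on 4× images, and relative viability is the nuclei count of treated wells over that of vehicle wells, given as the median of duplicate plates.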

[2] = tested on: NCI-H2405
Outline: as §1

[3] = tested on: 201T
Outline: as §1

[4] = tested on: NCI-H1792
Outline: as §1

[5] = tested on: HCC-78
Outline: as §1

[6] = tested on: NCI-H1793
Outline: as §1

[7] = tested on: UMC-11
Outline: as §1

[8] = tested on: EPLC-272H
Outline: as §1

[9] = tested on: NCI-H661
Outline: as §1

[10] = tested on: NCI-H2023
Outline: as §1

[11] = tested on: NCI-H23
Outline: as §1

[12] = tested on: NCI-H1395
Outline: as §1

[13] = tested on: RERF-LC-KJ
Outline: as §1

[14] = tested on: LOU-NH91
Outline: as §1

[15] = tested on: EMC-BAC-2
Outline: as §1

[16] = tested on: NCI-H1437
Outline: as §1

[17] = tested on: NCI-H647
Outline: as §1

[18] = tested on: NCI-H1915
Outline: as §1

[19] = tested on: NCI-H2342
Outline: as §1

[20] = tested on: SK-LU-1
Outline: as §1

[21] = tested on: NCI-H1651
Outline: as §1

[22] = tested on: NCI-H1975
Outline: as §1

[23] = tested on: ABC-1
Outline: as §1

## CCCCCCCCCCCC1=C(O)C(=O)C=C(O)C1=O [Embelin] + CC(=O)c1c(C)c2cnc(Nc3ccc(N4CCNCC4)cn3)nc2n(C2CCCC2)c1=O [Palbociclib] (partner 0.5 µM)
[1]; first compound 0.08 µM
  relative viability: 0.496
[1]; first compound 0.8 µM
  relative viability: 0.459
[1]; first compound 2.53 µM
  relative viability: 0.461
[1]; first compound 8 µM
  relative viability: 0.511
[2]; first compound 0.08 µM
  relative viability: 0.543
[2]; first compound 0.8 µM
  relative viability: 0.575
[2]; first compound 2.53 µM
  relative viability: 0.511
[2]; first compound 8 µM
  relative viability: 0.535
[3]; first compound 0.08 µM
  relative viability: 0.375
[3]; first compound 0.8 µM
  relative viability: 0.377
[3]; first compound 2.53 µM
  relative viability: 0.391
[3]; first compound 8 µM
  relative viability: 0.353
[4]; first compound 0.08 µM
  relative viability: 0.625
[4]; first compound 0.8 µM
  relative viability: 0.719
[4]; first compound 2.53 µM
  relative viability: 0.723
[4]; first compound 8 µM
  relative viability: 0.766
[5]; first compound 0.08 µM
  relative viability: 0.514
[5]; first compound 0.8 µM
  relative viability: 0.446
[5]; first compound 2.53 µM
  relative viability: 0.558
[5]; first compound 8 µM
  relative viability: 0.48
[6]; first compound 0.08 µM
  relative viability: 0.317
[6]; first compound 0.8 µM
  relative viability: 0.363
[6]; first compound 2.53 µM
  relative viability: 0.411
[6]; first compound 8 µM
  relative viability: 0.363
[7]; first compound 0.08 µM
  relative viability: 0.337
[7]; first compound 0.8 µM
  relative viability: 0.36
[7]; first compound 2.53 µM
  relative viability: 0.323
[7]; first compound 8 µM
  relative viability: 0.37
[8]; first compound 0.08 µM
  relative viability: 0.361
[8]; first compound 0.8 µM
  relative viability: 0.328
[8]; first compound 2.53 µM
  relative viability: 0.358
[8]; first compound 8 µM
  relative viability: 0.324
[9]; first compound 0.08 µM
  relative viability: 0.405
[9]; first compound 0.8 µM
  relative viability: 0.419
[9]; first compound 2.53 µM
  relative viability: 0.385
[9]; first compound 8 µM
  relative viability: 0.364
[10]; first compound 0.08 µM
  relative viability: 0.379
[10]; first compound 0.8 µM
  relative viability: 0.345
[10]; first compound 2.53 µM
  relative viability: 0.455
[10]; first compound 8 µM
  relative viability: 0.351
[11]; first compound 0.08 µM
  relative viability: 0.516
[11]; first compound 0.8 µM
  relative viability: 0.543
[11]; first compound 2.53 µM
  relative viability: 0.533
[11]; first compound 8 µM
  relative viability: 0.594
[12]; first compound 0.08 µM
  relative viability: 0.599
[12]; first compound 0.8 µM
  relative viability: 0.623
[12]; first compound 2.53 µM
  relative viability: 0.65
[12]; first compound 8 µM
  relative viability: 0.563
[13]; first compound 0.08 µM
  relative viability: 1.15
[13]; first compound 0.8 µM
  relative viability: 1.15
[13]; first compound 2.53 µM
  relative viability: 1.24
[13]; first compound 8 µM
  relative viability: 0.979
[14]; first compound 0.08 µM
  relative viability: 0.551
[14]; first compound 0.8 µM
  relative viability: 0.556
[14]; first compound 2.53 µM
  relative viability: 0.542
[14]; first compound 8 µM
  relative viability: 0.52
[15]; first compound 0.08 µM
  relative viability: 0.511
[15]; first compound 0.8 µM
  relative viability: 0.547
[15]; first compound 2.53 µM
  relative viability: 0.536
[15]; first compound 8 µM
  relative viability: 0.485
[16]; first compound 0.08 µM
  relative viability: 0.313
[16]; first compound 0.8 µM
  relative viability: 0.3
[16]; first compound 2.53 µM
  relative viability: 0.391
[16]; first compound 8 µM
  relative viability: 0.335
[17]; first compound 0.08 µM
  relative viability: 0.405
[17]; first compound 0.8 µM
  relative viability: 0.448
[17]; first compound 2.53 µM
  relative viability: 0.528
[17]; first compound 8 µM
  relative viability: 0.38
[18]; first compound 0.08 µM
  relative viability: 0.543
[18]; first compound 0.8 µM
  relative viability: 0.56
[18]; first compound 2.53 µM
  relative viability: 0.583
[18]; first compound 8 µM
  relative viability: 0.522
[19]; first compound 0.08 µM
  relative viability: 0.54
[19]; first compound 0.8 µM
  relative viability: 0.514
[19]; first compound 2.53 µM
  relative viability: 0.542
[19]; first compound 8 µM
  relative viability: 0.439
[20]; first compound 0.08 µM
  relative viability: 0.419
[20]; first compound 0.8 µM
  relative viability: 0.41
[20]; first compound 2.53 µM
  relative viability: 0.621
[20]; first compound 8 µM
  relative viability: 0.274
[21]; first compound 0.08 µM
  relative viability: 0.503
[21]; first compound 0.8 µM
  relative viability: 0.543
[21]; first compound 2.53 µM
  relative viability: 0.547
[21]; first compound 8 µM
  relative viability: 0.488
[22]; first compound 0.08 µM
  relative viability: 0.601
[22]; first compound 0.8 µM
  relative viability: 0.605
[22]; first compound 2.53 µM
  relative viability: 0.783
[22]; first compound 8 µM
  relative viability: 0.586
[23]; first compound 0.08 µM
  relative viability: 0.752
[23]; first compound 0.8 µM
  relative viability: 0.664
[23]; first compound 2.53 µM
  relative viability: 0.733
[23]; first compound 8 µM
  relative viability: 0.72

## CCCCCCCCCCCC1=C(O)C(=O)C=C(O)C1=O [Embelin] + CCNC(=O)c1noc(-c2cc(C(C)C)c(O)cc2O)c1-c1ccc(CN2CCOCC2)cc1 [Luminespib] (partner 0.01 µM)
[1]; first compound 0.08 µM
  relative viability: 1
[1]; first compound 0.8 µM
  relative viability: 1.03
[1]; first compound 2.53 µM
  relative viability: 1.14
[1]; first compound 8 µM
  relative viability: 0.926
[2]; first compound 0.08 µM
  relative viability: 0.723
[2]; first compound 0.8 µM
  relative viability: 0.681
[2]; first compound 2.53 µM
  relative viability: 0.775
[2]; first compound 8 µM
  relative viability: 0.738
[3]; first compound 0.08 µM
  relative viability: 0.987
[3]; first compound 0.8 µM
  relative viability: 1.08
[3]; first compound 2.53 µM
  relative viability: 1.06
[3]; first compound 8 µM
  relative viability: 1.09
[4]; first compound 0.08 µM
  relative viability: 0.363
[4]; first compound 0.8 µM
  relative viability: 0.515
[4]; first compound 2.53 µM
  relative viability: 0.46
[4]; first compound 8 µM
  relative viability: 0.516
[6]; first compound 0.08 µM
  relative viability: 0.175
[6]; first compound 0.8 µM
  relative viability: 0.192
[6]; first compound 2.53 µM
  relative viability: 0.207
[6]; first compound 8 µM
  relative viability: 0.186
[7]; first compound 0.08 µM
  relative viability: 1.1
[7]; first compound 0.8 µM
  relative viability: 1.15
[7]; first compound 2.53 µM
  relative viability: 1.27
[7]; first compound 8 µM
  relative viability: 1.22
[8]; first compound 0.08 µM
  relative viability: 0.69
[8]; first compound 0.8 µM
  relative viability: 0.222
[8]; first compound 2.53 µM
  relative viability: 0.253
[8]; first compound 8 µM
  relative viability: 0.266
[9]; first compound 0.08 µM
  relative viability: 0.924
[9]; first compound 0.8 µM
  relative viability: 1
[9]; first compound 2.53 µM
  relative viability: 0.897
[9]; first compound 8 µM
  relative viability: 0.85
[10]; first compound 0.08 µM
  relative viability: 0.813
[10]; first compound 0.8 µM
  relative viability: 0.914
[10]; first compound 2.53 µM
  relative viability: 0.773
[10]; first compound 8 µM
  relative viability: 0.372
[11]; first compound 0.08 µM
  relative viability: 0.228
[11]; first compound 0.8 µM
  relative viability: 0.212
[11]; first compound 2.53 µM
  relative viability: 0.221
[11]; first compound 8 µM
  relative viability: 0.232
[12]; first compound 0.08 µM
  relative viability: 0.741
[12]; first compound 0.8 µM
  relative viability: 0.928
[12]; first compound 2.53 µM
  relative viability: 0.783
[12]; first compound 8 µM
  relative viability: 0.631
[13]; first compound 0.08 µM
  relative viability: 1.05
[13]; first compound 0.8 µM
  relative viability: 1.13
[13]; first compound 2.53 µM
  relative viability: 1.51
[13]; first compound 8 µM
  relative viability: 0.55
[14]; first compound 0.08 µM
  relative viability: 0.429
[14]; first compound 0.8 µM
  relative viability: 0.369
[14]; first compound 2.53 µM
  relative viability: 0.36
[14]; first compound 8 µM
  relative viability: 0.299
[15]; first compound 0.08 µM
  relative viability: 1.14
[15]; first compound 0.8 µM
  relative viability: 1.38
[15]; first compound 2.53 µM
  relative viability: 1.22
[15]; first compound 8 µM
  relative viability: 1.29
[16]; first compound 0.08 µM
  relative viability: 1.17
[16]; first compound 0.8 µM
  relative viability: 1.17
[16]; first compound 2.53 µM
  relative viability: 1.08
[16]; first compound 8 µM
  relative viability: 0.622
[17]; first compound 0.08 µM
  relative viability: 0.233
[17]; first compound 0.8 µM
  relative viability: 0.326
[17]; first compound 2.53 µM
  relative viability: 0.138
[17]; first compound 8 µM
  relative viability: 0.132
[18]; first compound 0.08 µM
  relative viability: 0.818
[18]; first compound 0.8 µM
  relative viability: 0.819
[18]; first compound 2.53 µM
  relative viability: 0.853
[18]; first compound 8 µM
  relative viability: 0.892
[19]; first compound 0.08 µM
  relative viability: 0.758
[19]; first compound 0.8 µM
  relative viability: 0.902
[19]; first compound 2.53 µM
  relative viability: 0.826
[19]; first compound 8 µM
  relative viability: 0.645
[20]; first compound 0.08 µM
  relative viability: 0.206
[20]; first compound 0.8 µM
  relative viability: 0.186
[20]; first compound 2.53 µM
  relative viability: 0.182
[20]; first compound 8 µM
  relative viability: 0.204
[21]; first compound 0.08 µM
  relative viability: 0.953
[21]; first compound 0.8 µM
  relative viability: 0.944
[21]; first compound 2.53 µM
  relative viability: 0.977
[21]; first compound 8 µM
  relative viability: 0.886
[22]; first compound 0.08 µM
  relative viability: 0.296
[22]; first compound 0.8 µM
  relative viability: 0.282
[22]; first compound 2.53 µM
  relative viability: 0.293
[22]; first compound 8 µM
  relative viability: 0.2
[23]; first compound 0.08 µM
  relative viability: 0.546
[23]; first compound 0.8 µM
  relative viability: 0.841
[23]; first compound 2.53 µM
  relative viability: 0.913
[23]; first compound 8 µM
  relative viability: 0.825
